Data reported in patent publication EP1137632B1, “THIOUREA INHIBITORS OF HERPES VIRUSES” (Wyeth, priority 1998, dated 2000).
≈ marks a conversion by molar mass, not a printed value. Like-named read-outs stand apart in the source and are kept apart here.

Tests used:
[1] = test system: HCMV recombinant mutant virus; test: microbe, parasite or virus in culture; format: cell-based, human cytomegalovirus; details: Human betaherpesvirus 5, read-out: IC50 (ug/ml) HCMV
From the text: Microtiter plate assay. Ninety-six well plate cultures of human foreskin fibroblasts are infected in the presence of inhibitor compound with a HCMV recombinant mutant virus whose genome contains the prokaryotic beta-glucuronidase gene (Jefferson, R. A., S. M. Burgess, and D. Hirsh. 1986. Beta-glucuronidase from Escherichia coli as a gene fusion marker. Proc. Natl. Acad. Sci. USA 83:8447-8451) whose expression is controlled by a viral promoter. An example of such a virus is RV145 (Jones, T. R., V. P. Muzithras, and Y. Gluzman. 1991. Replacement mutagenesis of the human cytomegalovirus genome: US10 and US11 gene products are nonessential. J. Virol. 65:5860-5872). Since it is under the control of a viral promoter, beta-glucuronidase expression is an indirect indicator of growth and replication of HCMV in this assay. At 96 hours post-infection, the infected cell lysates are prepared (using 50mM sodium phosphate [pH7.0] containing 0.1 % Triton X-100 and 0.1% sarkosyl) and assayed for beta-glucuronidase activity using a substrate for the enzyme which when cleaved yields either a product which can be measured colorimetrically in a spectrophotometer or fluorescently in a microfluorimeter. Examples of such substrates are p-nitrophenyl-beta-D-glucuronide and methylumbelliferylglucuronide, respectively. The presence of an antiviral compound is indicated by the reduced expression of the HCMV genome resident beta-glucuronidase gene, compared to the absence of inhibitor. […] Data from this assay generated using varying amounts of inhibitor compound is also used to estimate the IC50 of an inhibitor compound.

HSV-1 = test: HSV antiviral (ELISA) assay in Vero cells; format: cell-based, herpes simplex virus type 1; details: read-out: IC50 (ug/ml) HSV
Description: HSV antiviral (ELISA) assay
Vero cells (ATCC #CCL-81) are plated on 96-well tissue culture plates at 3.5x10^4 cells per 100µl tissue culture DMEM (Dulbecco's modified Eagle media) supplemented with 2% fetal bovine serum (FBS) in each well. After overnight incubation @ 37°C (in 5% CO2) and 30 minutes prior to infection with HSV-1 (multiplicity of infection equal to 0.006), cells are either untreated, or treated with test compound (multiple concentrations) or reference standard drug control. After approximately 24 hours post-infection incubation @ 37°C (in 5% CO2), cells are fixed for ELISA assay. The primary antibody is murine anti-HSV glycoprotein D monoclonal primary antibody and the secondary antibody is goat anti-mouse IgG linked to β-galactosidase. Thus the extent of viral replication is determined by assessing β-galactosidase activity by quantifying the generation of the 4-methyl umbelliferone fluorescent cleavage product after addition of the methyl umbelliferyl-β-D-galactoside (Sigma #M1633) substrate on a microfluorimeter (365nm for excitation and 450nm for emission). Antiviral activity (IC50) of the test compound is determined by comparing the flourescence obtained in absence of compound to that obtained in the presence of compound.

VZV strain Ellen = test: VZV antiviral (ELISA) assay in human foreskin fibroblast cells; format: cell-based, varicella-zoster virus; details: read-out: IC50 (ug/ml) VZV
Description: VZV antiviral (ELISA) assay
For the generation of stock VZV to be used in the assay, VZV strain Ellen (ATCC #VR-1367) is used to infect human foreskin fibroblast (HFF) cells at low multiplicity (less than 0.1) and incubated overnight at 37°C in 5% CO2. After the overnight incubation, the mixture of uninfected and VZV-infected HFF infected cells are then harvested and added to each well of 96-well plates (3.5x10^4 cells in 100 µl DMEM supplemented with 2% FBS) which contain test compound or the reference standard drug control (in 100µl DMEM supplemented with 2% FBS per well). These cells are incubated for three days at 37°C in 5% CO2, then fixed for ELISA assay. The primary antibody is murine anti-VZV glycoprotein II monoclonal antibody (Applied Biosystems, Inc. #13-145-100) and the secondary antibody is goat anti-mouse IgG linked to β-galactosidase. Thus the extent of viral replication is determined by assessing β-galactosidase activity by quantifying the generation of the 4-methyl umbelliferone fluorescent cleavage product after addition of the methyl umbelliferyl-β-D-galactoside (Sigma #M1633) substrate on a microfluorimeter (365nm for excitation and 450nm for emission). Antiviral activity (IC50) of the test compound is determined by comparing the flourescence obtained in absence of compound to that obtained in the presence of compound.

[2] = Human alphaherpesvirus 1, HSV-1 in Vero cells
[3] = Human alphaherpesvirus 3, VZV strain Ellen in HFF cells

SMILES | IC50 [1] [µg/mL] | IC50 (HSV-1; [2]) [µg/mL] | IC50 (VZV strain Ellen; [3]) [µg/mL] | IC50 (HSV-1; Human alphaherpesvirus 1, Vero) [µg/mL] | IC50 (VZV strain Ellen; Human alphaherpesvirus 3, HFF) [µg/mL]
COc1cc(NC(=S)NC(C)c2ccc(C#N)cc2)c(OC)cc1NC(=O)c1ccccc1F (stereo not drawn) [Example 1024, N-(4-{3-[1-(4-Cyano-phenyl)-ethyl]-thioureido}-2,5-dimethoxy-phenyl)-2-fluoro-benzamide] | > 10 | > 10 | > 10 | – | –
COc1cc(NC(=S)NC(C)c2ccc(F)cc2)c(OC)cc1NC(=O)c1ccccc1F (stereo not drawn) [Example 1025, 2-Fluoro-N-(4-{3-[1-(4-fluoro-phenyl)-ethyl]-thioureido}-2,5-dimethoxy-phenyl)-benzamide] | > 10 | > 10 | > 10 | – | –
COc1cc(OC)c(NC(=S)Nc2c(Cl)cc(NC(=O)c3ccccc3F)cc2Cl)cc1Cl [Example 1026, N-{3,5-Dichloro-4-[3-(5-chloro-2,4-dimethoxy-phenyl)-thioureido]-phenyl}-2-fluoro-benzamide] | > 10 | 0.15 (≈ 0.284 µM) | > 10 | – | –
Cc1cc(NC(=O)c2cc(F)c(F)cc2F)ccc1NC(=S)NC(C)c1ccc(F)cc1 (stereo not drawn) [Example 1029, 2,4,5-Trifluoro-N-(4-{3-[1-(4-fluoro-phenyl)-ethyl]-thioureido}-3-methyl-phenyl)-benzamide] | > 10 | > 10 | 0.53 (≈ 1.15 µM) | – | –
COc1cc(NC(=S)NC(C)c2ccc(F)cc2)c(C)cc1NC(=O)c1ccccc1F (stereo not drawn) [Example 1031, 2-Fluoro-N-(4-{3-[1-(4-fluoro-phenyl)-ethyl]-thioureido}-2-methoxy-5-methyl-phenyl)-benzamide] | > 10 | > 10 | 0.7 (≈ 1.54 µM) | – | –
CC(NC(=S)Nc1cc(Br)c(NC(=O)c2ccccc2F)c(Br)c1)c1ccc(F)cc1 (stereo not drawn) [Example 1033, N-(2,6-Dibromo-4-{3-[1-(4-fluoro-phenyl)-ethyl]-thioureido}-phenyl)-2-fluoro-benzamide] | 3.8 (≈ 6.68 µM) | 7 (≈ 12.3 µM) | 0.039 (≈ 0.0685 µM) | – | –
CC(NC(=S)Nc1ccc(NC(=O)c2ccccc2F)c(C(F)(F)F)c1)c1ccc(F)cc1 (stereo not drawn) [Example 1034, 2-Fluoro-N-(4-{3-[1-(4-fluoro-phenyl)-ethyl]-thioureido}-2-trifluoromethyl-phenyl)-benzamide] | 2.6 (≈ 5.42 µM) | > 10 | 0.03 (≈ 0.0626 µM) | – | –
CC(NC(=S)Nc1ccc(NC(=O)c2ccccc2F)c(C(F)(F)F)c1)c1ccc(Br)cc1 (stereo not drawn) [Example 1035, N-(4-{3-[1-(4-Bromo-phenyl)-ethyl)-thioureido}-2-trifluoromethyl-phenyl)-2-fluoro-benzamide] | 2.3 (≈ 4.26 µM) | 3.1 (≈ 5.74 µM) | 0.032 (≈ 0.0592 µM) | – | –
CC(NC(=S)Nc1ccc(NC(=O)c2ccccc2F)c(C(F)(F)F)c1)c1ccc(C#N)cc1 (stereo not drawn) [Example 1036, N-(4-{3-[1-(4-Cyano-phenyl)-ethyl]-thioureido}-2-trifluoromethyl-phenyl)-2-fluoro-benzamide] | 2.1 (≈ 4.32 µM) | 4 (≈ 8.22 µM) | 0.31 (≈ 0.637 µM) | – | –
CC(NC(=S)Nc1ccc(NC(=O)c2ccccc2F)c(C(F)(F)F)c1)c1cc2ccccc2o1 (stereo not drawn) [Example 1037, N-{4-[3-(1-Benzofuran-2-yl-ethyl)-thioureido]-2-trifluoromethyl-phenyl}-2-fluoro-benzamide] | 2 (≈ 3.99 µM) | 3.6 (≈ 7.18 µM) | 0.027 (≈ 0.0538 µM) | – | –
CC(NC(=S)Nc1ccc(NC(=O)c2ccccc2F)c(Cl)c1)c1ccc(F)cc1 (stereo not drawn) [Example 1038, N-(2-Chloro-4-{3-[1-(4-fluoro-phenyl)-ethyl]-thioureido}-phenyl)-2-fluoro-benzamide] | 3.5 (≈ 7.85 µM) | 3 (≈ 6.73 µM) | 0.04 (≈ 0.0897 µM) | – | –
CC(NC(=S)Nc1ccc(NC(=O)c2ccccc2F)c(Cl)c1)c1ccc(C#N)cc1 (stereo not drawn) [Example 1039, N-(2-Chloro-4-{3-[1-(4-cyano-phenyl)-ethyl]-thioureido}-phenyl)-2-fluoro-benzamide] | 1.3 (≈ 2.87 µM) | 7.2 (≈ 15.9 µM) | 0.25 (≈ 0.552 µM) | – | –
CC(NC(=S)Nc1ccc(NC(=O)c2ccccc2F)c(C#N)c1)c1ccc(F)cc1 (stereo not drawn) [Example 1040, N-(2-Cyano-4-{3-[1-(4-fluoro-phenyl)-ethyl]-thioureido}-phenyl)-2-fluoro-benzamide] | > 10 | > 10 | 0.05 (≈ 0.115 µM) | – | –
CC(NC(=S)Nc1ccc(NC(=O)c2ccccc2F)c(C#N)c1)c1ccc(Br)cc1 (stereo not drawn) [Example 1041, N-(4-{3-[1-(4-Bromo-phenyl)-ethyl]-thioureido}-2-cyano-phenyl)-2-fluoro-benzamide] | 10.4 (≈ 20.9 µM) | > 10 | 0.096 (≈ 0.193 µM) | – | –
CC(NC(=S)Nc1ccc(NC(=O)c2ccccc2F)c(C#N)c1)c1ccc(C#N)cc1 (stereo not drawn) [Example 1042, N-(2-Cyano-4-{3-[1-(4-cyano-phenyl)-ethyl]-thioureido}-phenyl)-2-fluoro-benzamide] | 2.1 (≈ 4.73 µM) | 4.2 (≈ 9.47 µM) | 0.54 (≈ 1.22 µM) | – | –
CC(NC(=S)Nc1ccc(NC(=O)c2ccccc2F)c(C#N)c1)c1cc2ccccc2o1 (stereo not drawn) [Example 1043, N-{4-[3-(1-Benzofuran-2-yl-ethyl)-thioureido]-2-cyano-phenyl)-2-fluoro-benzamide] | > 10 | > 10 | 0.099 (≈ 0.216 µM) | – | –
CC(NC(=S)Nc1ccc(NC(=O)c2ccccc2F)c(C(=O)c2ccccc2)c1)c1ccc(F)cc1 (stereo not drawn) [Example 1044, N-(2-Benzoyl-4-{3-[1-(4-fluoro-phenyl)-ethyl]-thioureido}-phenyl)-2-fluoro-benzamide] | 1.8 (≈ 3.49 µM) | > 10 | 3.3 (≈ 6.4 µM) | – | –
Cc1cc(NC(=S)NC(C)c2ccc(F)cc2)ccc1NC(=O)c1ccccc1F (stereo not drawn) [Example 1045, 2-Fluoro-N-(4-{3-[1-(4-fluoro-phenyl)-ethyl]-thioureido}-2-methyl-phenyl)-benzamide] | 1.5 (≈ 3.53 µM) | 6.2 (≈ 14.6 µM) | 0.05 (≈ 0.118 µM) | – | –
Cc1cc(NC(=S)NC(C)c2ccc(Br)cc2)ccc1NC(=O)c1ccccc1F (stereo not drawn) [Example 1046, N-(4-{3-[1-(4-Bromo-phenyl)-ethyl]-thioureido}-2-methyl-phenyl)-2-fluoro-benzamide] | 2.8 (≈ 5.76 µM) | 6.3 (≈ 13 µM) | 0.057 (≈ 0.117 µM) | – | –
Cc1cc(NC(=S)NC(C)c2ccc(C#N)cc2)ccc1NC(=O)c1ccccc1F (stereo not drawn) [Example 1047, N-(4-{3-[1-(4-Cyano-phenyl)-ethyl]-thioureido}-2-methyl-phenyl)-2-fluoro-benzamide] | 6.1 (≈ 14.1 µM) | – | – | > 10 | 0.63 (≈ 1.46 µM)
Cc1cc(NC(=S)NC(C)c2cc3ccccc3o2)ccc1NC(=O)c1ccccc1F (stereo not drawn) [Example 1048, N-{4-[3-(1-Benzofuran-2-yl-ethyl)-thioureido]-2-methyl-phenyl}-2-fluoro-benzamide] | 3.4 (≈ 7.6 µM) | > 10 | 0.061 (≈ 0.136 µM) | – | –
CC(NC(=S)Nc1ccc(NC(=O)c2ccccc2F)c(N(C)C)c1)c1ccc(F)cc1 (stereo not drawn) [Example 1049, N-(2-Dimethylamino-4-{3-[1-(4-fluoro-phenyl)-ethyl]-thioureido}-phenyl)-2-fluoro-benzamide] | 4.5 (≈ 9.9 µM) | 8 (≈ 17.6 µM) | 0.07 (≈ 0.154 µM) | – | –
CC(NC(=S)Nc1ccc(NC(=O)c2ccccc2F)c(OCc2ccccc2)c1)c1ccc(C#N)cc1 (stereo not drawn) [Example 1050, N-(2-Benzyloxy-4-{3-[1-(4-cyano-phenyl)-ethyl]-thioureido}-phenyl)-2-fluoro-benzamide] | > 10 | > 10 | > 7.5 | – | –
